Laboratory results published in USRE48461E1, “Modulation of androgen receptor expression” (Ionis Pharmaceuticals, Inc., priority 2012, dated 2021).

Columns and labels:
[1] = cynomolgus monkey, in vivo, sc, 40 mg/kg
Protocol: (§1) Prior to the study, the monkeys were kept in quarantine for a 30-day period, during which the animals were observed daily for general health. The monkeys were 2-4 years old and weighed between 2 and 4 kg. Thirteen groups of four randomly assigned male cynomolgus monkeys each were injected subcutaneously with ISIS oligonucleotide or PBS. PBS solution or ISIS oligonucleotides, at a dose of 40 mg/kg, were administered with a loading regimen consisting of four doses on the first week of the study (days 1, 3, 5, and 7), followed by a maintenance regimen consisting of once weekly administration starting on Day 14 (weeks 2 to 6). Subcutaneous injections were performed in clock-wise rotations at 4 sites on the back; one site per dose. The injection sites were delineated by tattoo, while sedated using ketamine, and were separated by a minimum of 3 cm.
To evaluate the effect of ISIS oligonucleotides on the overall health of the animals, body and organ weights were measured.

MDA-MB-453 tumor = experiment: Tumor volume in MDA-MB-453 breast cancer orthotopic model; assay type: in vivo, NSG mice; conditions: 50 mg/kg s.c. five times a week for 4 weeks; for Tumor volume: Study 1, MDA-MB-453 orthotopic, NSG mice
AR mRNA = AR mRNA expression in MDA-MB-453 breast cancer orthotopic model; assay type: in vivo, human; conditions: Study 1; TB-interface, normalized to actin; 50 mg/kg s.c. five times a week for 4 weeks
[2] = cynomolgus monkey, in vivo, sc, 40 mg/kg; remark: listed apart in the source
Protocol: as §1
To evaluate any effect of ISIS oligonucleotides in cynomolgus monkeys on hematologic parameters, blood samples of approximately 0.5 mL of blood was collected day 44 from each of the available study animals in tubes containing K2-EDTA. Samples were analyzed for red blood cell (RBC) count, white blood cells (WBC) count, platelet count, hemoglobin content and hematocrit, using an ADVIA2120i hematology analyzer (SIEMENS, USA).

[3] = cynomolgus monkey, in vivo, sc, 40 mg/kg; remark: listed apart in the source
[4] = cynomolgus monkey, in vivo, sc, 40 mg/kg; remark: listed apart in the source
Protocol: as §1
To evaluate the effect of ISIS oligonucleotides on hepatic function, the monkeys were fasted overnight. Approximately, 1.5 mL of blood samples were collected on day 44 from all the study groups. Blood was collected in tubes without anticoagulant for serum separation. The tubes were kept at room temperature for a minimum of 90 min and then centrifuged at 3,000 rpm for 10 min. Levels of various liver function markers were measured using a Toshiba 120FR NEO chemistry analyzer (Toshiba Co., Japan).

[5] = cynomolgus monkey, in vivo, sc, 40 mg/kg; remark: listed apart in the source

TGATTTAATGGTTGCA [ISIS 569216] (cEt/MOE gapmer chemistry, further chemistry not given here)
Body Wt [1]: 2.6 kg
Heart weight [1]: 9.3 g
Kidney weight [1]: 15 g
Liver weight [1]: 71 g
Mesenteric lymph nodes weight [1]: 2.7 g
Spleen weight [1]: 4.9 g
Tumor volume (MDA-MB-453 tumor; Day 16): 134
Tumor volume (MDA-MB-453 tumor; Day 23): 142
Tumor volume (MDA-MB-453 tumor; Day 30): 173
Tumor volume (MDA-MB-453 tumor; Day 37): 125
Tumor volume (MDA-MB-453 tumor; Day 44): 92
Tumor volume (MDA-MB-453 tumor; Day 51): 73
Tumor volumes (MDA-MB-453 tumor; Study 1, MDA-MB-453 model): tumor volumes were significantly decreased
AR mRNA expression inhibited compared to the control group (AR mRNA): 48%
HCT [2]: 43%
Hemoglobin [2]: 12.8 g/dL
Platelets [2]: 504000 µL
RBC [2]: 5.6e+06 µL
WBC [2]: 12200 µL
C3 (% of baseline) [3]: 94 % of baseline
CRP [3]: 3.6 mg/dL
ALT [4]: 75 IU/L
AST [4]: 93 IU/L
Albumin [4]: 3.7 g/dL
Plasma BUN [5]: 28.4 mg/dL
Plasma Creatinine [5]: 0.81 mg/dL
